Results on four compounds are retold here after ChEMBL document CHEMBL1154731, “Theoretical and structural analysis of the active site of the transcriptional regulators LasR and TraR, using molecular docking methodology for identifying potential analogues of acyl homoserine lactones (AHLs) with anti-quorum sensing activity” (Eur J Med Chem, 2010).

The target in test [1] is T1, Transcriptional activator protein TraR (Agrobacterium tumefaciens, UniProt P33905).
T1 sequence (P33905 whole entry): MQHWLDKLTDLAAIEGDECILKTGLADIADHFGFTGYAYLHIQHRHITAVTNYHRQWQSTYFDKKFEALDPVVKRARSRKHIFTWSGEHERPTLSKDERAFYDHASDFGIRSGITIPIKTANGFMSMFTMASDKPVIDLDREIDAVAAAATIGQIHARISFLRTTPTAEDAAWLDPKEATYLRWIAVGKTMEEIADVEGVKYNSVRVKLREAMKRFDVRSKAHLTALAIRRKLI
The test is described as follows: Inhibition of Agrobacterium tumefaciens TraR.

For test [2], the target named is T2, Transcriptional activator protein LasR (Pseudomonas aeruginosa (strain ATCC 15692 / PAO1 / 1C / PRS 101 / LMG12228), UniProt P25084).
T2 sequence (P25084 whole entry): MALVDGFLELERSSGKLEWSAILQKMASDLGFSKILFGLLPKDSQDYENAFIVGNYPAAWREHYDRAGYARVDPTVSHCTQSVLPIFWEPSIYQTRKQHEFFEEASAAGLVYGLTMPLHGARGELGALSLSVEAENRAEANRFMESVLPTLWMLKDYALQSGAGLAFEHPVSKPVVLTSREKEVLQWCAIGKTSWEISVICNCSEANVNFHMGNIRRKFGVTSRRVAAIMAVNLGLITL
The test is described as follows: Inhibition of Pseudomonas aeruginosa LasR.

One may read the IC50 as the concentration that gives 50% inhibition. Lower therefore signals inhibition by little substance. `O=C(CC(=O)N[C@H]1CCOC1=O)Cc1ccccc1`: the IC50 was 0.5 µM in test [1] and 53.6 µM in test [2].

`O=C(CCCc1c[nH]c2ccccc12)N[C@H]1CCOC1=O`: the results for the IC50 in test [1] and in test [2] were 1.1 µM and 14.8 µM, respectively.

Regarding `O=C(CC1C=CCC1)N[C@H]1CCOC1=O` (stereo partly drawn), the figures for the IC50 in test [1] and in test [2] were 1 µM and 33.1 µM, respectively.

With `CCCCCCC(=O)N[C@H]1CCOC1=O`, the results for the IC50 in test [1] and in test [2] were 0.13 µM and 51.5 µM, respectively.
